Measured values from ChEMBL document CHEMBL5291721, “A preclinical secondary pharmacology resource illuminates target-adverse drug reaction associations of marketed drugs” (Nat Commun, 2023).

Tests used:
[1] = molecular target: Acetylcholinesterase (Homo sapiens, UniProt P22303); format: functional
[2] = molecular target: T1, Adenosine receptor A3 (Homo sapiens, UniProt P0DMS8)
T1 sequence (P0DMS8 whole entry): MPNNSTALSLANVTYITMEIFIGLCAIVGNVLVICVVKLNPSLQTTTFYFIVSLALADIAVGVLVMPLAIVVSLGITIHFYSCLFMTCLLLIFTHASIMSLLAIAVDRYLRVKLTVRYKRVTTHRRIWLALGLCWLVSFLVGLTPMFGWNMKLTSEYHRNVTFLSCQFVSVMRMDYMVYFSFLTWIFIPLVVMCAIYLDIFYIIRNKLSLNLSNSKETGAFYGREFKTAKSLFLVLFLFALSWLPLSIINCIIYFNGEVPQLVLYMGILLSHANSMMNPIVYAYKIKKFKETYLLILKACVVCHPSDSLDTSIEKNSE

[3] = molecular target: T2, Alpha-1A adrenergic receptor (Homo sapiens, UniProt P35348); format: functional, cell-based
T2 sequence (P35348 whole entry): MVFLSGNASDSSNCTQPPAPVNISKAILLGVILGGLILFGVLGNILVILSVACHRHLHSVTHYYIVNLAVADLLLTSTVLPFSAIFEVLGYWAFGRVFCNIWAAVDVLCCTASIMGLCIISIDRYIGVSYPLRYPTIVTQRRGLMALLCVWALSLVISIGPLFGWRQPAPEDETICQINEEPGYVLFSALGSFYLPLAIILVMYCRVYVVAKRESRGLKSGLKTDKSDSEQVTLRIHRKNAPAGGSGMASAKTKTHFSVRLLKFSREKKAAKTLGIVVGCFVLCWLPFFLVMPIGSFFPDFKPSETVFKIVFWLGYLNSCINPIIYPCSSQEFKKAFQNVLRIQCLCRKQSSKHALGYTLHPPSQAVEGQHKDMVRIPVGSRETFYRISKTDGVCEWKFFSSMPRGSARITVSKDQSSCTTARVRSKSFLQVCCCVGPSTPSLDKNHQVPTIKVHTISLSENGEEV

[4] = molecular target: T2, Alpha-1A adrenergic receptor; format: functional, cell-based; remark: listed apart in the source
[5] = molecular target: T3, Alpha-2A adrenergic receptor (Homo sapiens, UniProt P08913)
T3 sequence (P08913 whole entry): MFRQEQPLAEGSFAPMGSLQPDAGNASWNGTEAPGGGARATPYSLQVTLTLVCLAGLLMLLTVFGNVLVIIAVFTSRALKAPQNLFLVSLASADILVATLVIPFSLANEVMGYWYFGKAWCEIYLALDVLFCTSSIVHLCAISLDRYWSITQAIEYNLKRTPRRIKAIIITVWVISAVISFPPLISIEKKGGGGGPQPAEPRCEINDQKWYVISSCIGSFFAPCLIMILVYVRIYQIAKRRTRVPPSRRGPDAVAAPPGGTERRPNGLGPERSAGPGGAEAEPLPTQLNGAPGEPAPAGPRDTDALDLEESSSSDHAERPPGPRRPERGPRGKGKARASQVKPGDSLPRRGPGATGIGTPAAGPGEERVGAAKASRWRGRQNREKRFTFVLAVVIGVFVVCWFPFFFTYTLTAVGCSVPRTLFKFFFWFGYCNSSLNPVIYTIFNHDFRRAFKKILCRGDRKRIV

[6] = molecular target: D(1A) dopamine receptor (Homo sapiens, UniProt P21728)
[7] = molecular target: D(3) dopamine receptor (Homo sapiens, UniProt P35462)
[8] = molecular target: Prothrombin (Homo sapiens, UniProt P00734); format: functional
[9] = molecular target: Histamine H3 receptor (Homo sapiens, UniProt Q9Y5N1)
Sequence of Histamine H3 receptor (Q9Y5N1 whole entry): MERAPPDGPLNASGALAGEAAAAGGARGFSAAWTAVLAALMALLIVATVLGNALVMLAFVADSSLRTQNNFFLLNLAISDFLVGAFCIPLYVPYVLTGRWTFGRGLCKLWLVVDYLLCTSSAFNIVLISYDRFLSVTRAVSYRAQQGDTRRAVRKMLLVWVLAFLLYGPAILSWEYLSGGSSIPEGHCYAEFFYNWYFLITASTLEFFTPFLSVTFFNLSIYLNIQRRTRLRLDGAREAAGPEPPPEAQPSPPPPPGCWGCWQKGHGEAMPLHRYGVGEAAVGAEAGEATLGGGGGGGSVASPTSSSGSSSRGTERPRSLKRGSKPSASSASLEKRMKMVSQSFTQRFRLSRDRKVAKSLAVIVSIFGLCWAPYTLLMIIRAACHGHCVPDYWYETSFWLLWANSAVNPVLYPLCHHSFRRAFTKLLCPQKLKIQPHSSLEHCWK

[10] = molecular target: 5-hydroxytryptamine receptor 2B (Homo sapiens, UniProt P41595); format: functional, cell-based
Sequence of 5-hydroxytryptamine receptor 2B (P41595 whole entry): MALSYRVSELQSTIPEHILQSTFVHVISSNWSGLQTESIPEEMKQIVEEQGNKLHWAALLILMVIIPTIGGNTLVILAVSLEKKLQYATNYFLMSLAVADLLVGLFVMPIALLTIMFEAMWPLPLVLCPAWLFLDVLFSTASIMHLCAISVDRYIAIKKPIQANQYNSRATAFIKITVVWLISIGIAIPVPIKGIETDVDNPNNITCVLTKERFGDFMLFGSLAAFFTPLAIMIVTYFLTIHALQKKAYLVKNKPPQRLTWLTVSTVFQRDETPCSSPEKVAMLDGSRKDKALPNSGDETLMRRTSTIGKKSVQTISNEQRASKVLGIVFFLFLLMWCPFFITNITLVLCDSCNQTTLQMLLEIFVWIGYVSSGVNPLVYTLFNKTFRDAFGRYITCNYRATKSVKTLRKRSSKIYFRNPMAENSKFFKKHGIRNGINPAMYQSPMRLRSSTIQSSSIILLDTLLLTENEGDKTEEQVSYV

[11] = molecular target: Vascular endothelial growth factor receptor 2 (Homo sapiens, UniProt P35968); format: functional
Sequence of Vascular endothelial growth factor receptor 2 (P35968 whole entry): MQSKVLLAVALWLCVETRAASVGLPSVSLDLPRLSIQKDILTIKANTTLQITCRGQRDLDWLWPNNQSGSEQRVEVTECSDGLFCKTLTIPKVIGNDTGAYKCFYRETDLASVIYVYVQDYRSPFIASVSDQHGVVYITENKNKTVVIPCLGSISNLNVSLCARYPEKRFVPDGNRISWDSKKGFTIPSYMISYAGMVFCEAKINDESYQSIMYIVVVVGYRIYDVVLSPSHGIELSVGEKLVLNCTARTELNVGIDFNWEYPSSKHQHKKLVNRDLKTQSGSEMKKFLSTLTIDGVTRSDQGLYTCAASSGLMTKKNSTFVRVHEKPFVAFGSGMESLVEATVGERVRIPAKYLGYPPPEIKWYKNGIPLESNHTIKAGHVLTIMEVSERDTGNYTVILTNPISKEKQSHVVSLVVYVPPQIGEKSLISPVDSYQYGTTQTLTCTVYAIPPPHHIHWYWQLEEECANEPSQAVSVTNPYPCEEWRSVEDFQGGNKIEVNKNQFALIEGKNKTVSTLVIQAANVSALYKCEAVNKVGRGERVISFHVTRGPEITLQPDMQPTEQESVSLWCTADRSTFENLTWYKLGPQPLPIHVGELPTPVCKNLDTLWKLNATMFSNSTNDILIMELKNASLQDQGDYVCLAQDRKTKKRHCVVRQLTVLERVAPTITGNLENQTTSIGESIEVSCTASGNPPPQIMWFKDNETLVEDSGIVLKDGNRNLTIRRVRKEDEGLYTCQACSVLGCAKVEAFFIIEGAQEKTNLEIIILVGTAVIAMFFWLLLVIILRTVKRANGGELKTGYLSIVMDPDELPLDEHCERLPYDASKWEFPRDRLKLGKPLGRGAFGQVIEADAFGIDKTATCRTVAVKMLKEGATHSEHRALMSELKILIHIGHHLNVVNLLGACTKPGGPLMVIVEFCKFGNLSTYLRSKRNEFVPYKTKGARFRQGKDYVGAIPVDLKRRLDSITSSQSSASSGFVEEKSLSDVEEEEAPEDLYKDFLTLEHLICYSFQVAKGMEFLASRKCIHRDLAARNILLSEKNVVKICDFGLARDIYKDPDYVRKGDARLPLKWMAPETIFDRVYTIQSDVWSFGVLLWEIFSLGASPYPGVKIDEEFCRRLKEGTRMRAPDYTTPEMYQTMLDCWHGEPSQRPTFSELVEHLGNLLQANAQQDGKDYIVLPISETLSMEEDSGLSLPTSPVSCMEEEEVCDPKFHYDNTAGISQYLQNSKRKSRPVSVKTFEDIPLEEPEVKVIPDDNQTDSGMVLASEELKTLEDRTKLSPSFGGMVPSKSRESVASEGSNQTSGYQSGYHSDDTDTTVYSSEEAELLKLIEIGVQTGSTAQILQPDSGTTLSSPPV

[12] = molecular target: Mu-type opioid receptor (Homo sapiens, UniProt P35372)
[13] = molecular target: cGMP-inhibited 3',5'-cyclic phosphodiesterase 3A (Homo sapiens, UniProt Q14432); format: functional
[14] = molecular target: 3',5'-cyclic-AMP phosphodiesterase 4A (Homo sapiens, UniProt P27815); format: functional
Sequence of 3',5'-cyclic-AMP phosphodiesterase 4A (P27815 whole entry): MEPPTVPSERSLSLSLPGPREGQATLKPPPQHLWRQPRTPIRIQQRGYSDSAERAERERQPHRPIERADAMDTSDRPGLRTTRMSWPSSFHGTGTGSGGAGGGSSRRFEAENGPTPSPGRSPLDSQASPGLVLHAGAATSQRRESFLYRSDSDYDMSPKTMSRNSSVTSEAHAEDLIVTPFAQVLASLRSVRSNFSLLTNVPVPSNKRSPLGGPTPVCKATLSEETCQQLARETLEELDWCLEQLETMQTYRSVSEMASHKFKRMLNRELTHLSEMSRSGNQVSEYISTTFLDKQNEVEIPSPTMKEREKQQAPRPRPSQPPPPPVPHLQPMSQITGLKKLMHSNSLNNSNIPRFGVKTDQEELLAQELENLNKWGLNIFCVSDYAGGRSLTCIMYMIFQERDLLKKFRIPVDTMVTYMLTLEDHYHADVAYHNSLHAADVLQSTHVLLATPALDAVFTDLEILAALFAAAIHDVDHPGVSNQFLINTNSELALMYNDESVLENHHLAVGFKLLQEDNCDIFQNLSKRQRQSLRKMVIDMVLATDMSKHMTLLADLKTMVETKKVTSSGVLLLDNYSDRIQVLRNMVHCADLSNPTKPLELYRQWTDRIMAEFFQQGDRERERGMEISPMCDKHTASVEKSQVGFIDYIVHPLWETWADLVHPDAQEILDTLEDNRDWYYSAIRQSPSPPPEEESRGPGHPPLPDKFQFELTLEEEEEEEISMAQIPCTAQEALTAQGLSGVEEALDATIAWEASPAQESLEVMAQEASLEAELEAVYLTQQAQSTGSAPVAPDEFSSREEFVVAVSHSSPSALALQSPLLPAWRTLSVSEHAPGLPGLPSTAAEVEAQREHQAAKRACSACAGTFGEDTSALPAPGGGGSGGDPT

[15] = molecular target: Sodium-dependent noradrenaline transporter (Homo sapiens, UniProt P23975)
[16] = molecular target: Sodium-dependent dopamine transporter (Homo sapiens, UniProt Q01959)
Sequence of Sodium-dependent dopamine transporter (Q01959 whole entry): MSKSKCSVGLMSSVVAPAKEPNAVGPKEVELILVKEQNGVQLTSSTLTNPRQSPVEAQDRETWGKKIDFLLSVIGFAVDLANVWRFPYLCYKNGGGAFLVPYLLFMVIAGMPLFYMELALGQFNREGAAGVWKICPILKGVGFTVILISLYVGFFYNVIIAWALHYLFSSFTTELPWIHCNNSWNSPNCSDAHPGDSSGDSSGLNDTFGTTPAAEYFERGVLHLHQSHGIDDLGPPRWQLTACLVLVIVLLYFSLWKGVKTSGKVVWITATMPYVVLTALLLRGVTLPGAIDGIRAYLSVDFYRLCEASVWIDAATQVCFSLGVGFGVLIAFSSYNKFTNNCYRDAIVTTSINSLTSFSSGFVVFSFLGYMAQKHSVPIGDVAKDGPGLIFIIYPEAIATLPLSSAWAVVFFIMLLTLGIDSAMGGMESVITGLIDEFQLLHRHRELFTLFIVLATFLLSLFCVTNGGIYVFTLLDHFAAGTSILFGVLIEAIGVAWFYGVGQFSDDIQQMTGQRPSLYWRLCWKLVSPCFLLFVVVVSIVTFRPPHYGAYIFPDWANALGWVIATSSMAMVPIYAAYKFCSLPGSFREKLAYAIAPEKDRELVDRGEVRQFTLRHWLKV

[17] = molecular target: T4, Thromboxane A2 receptor (Homo sapiens, UniProt P21731); format: functional, cell-based
T4 sequence (P21731 whole entry): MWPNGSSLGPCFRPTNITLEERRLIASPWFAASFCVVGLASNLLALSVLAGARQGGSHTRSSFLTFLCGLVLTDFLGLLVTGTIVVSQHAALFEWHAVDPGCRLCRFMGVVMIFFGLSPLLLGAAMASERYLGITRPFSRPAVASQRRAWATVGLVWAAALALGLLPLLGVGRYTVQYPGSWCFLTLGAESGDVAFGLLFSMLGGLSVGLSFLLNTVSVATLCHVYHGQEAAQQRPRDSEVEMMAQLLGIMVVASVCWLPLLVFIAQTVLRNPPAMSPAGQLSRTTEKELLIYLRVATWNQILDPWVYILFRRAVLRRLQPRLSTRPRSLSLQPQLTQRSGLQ

[18] = molecular target: T4, Thromboxane A2 receptor; format: functional, cell-based; remark: listed apart in the source
[19] = molecular target: T5, Prostaglandin G/H synthase 1 (Homo sapiens, UniProt P23219); format: functional
T5 sequence (P23219 whole entry): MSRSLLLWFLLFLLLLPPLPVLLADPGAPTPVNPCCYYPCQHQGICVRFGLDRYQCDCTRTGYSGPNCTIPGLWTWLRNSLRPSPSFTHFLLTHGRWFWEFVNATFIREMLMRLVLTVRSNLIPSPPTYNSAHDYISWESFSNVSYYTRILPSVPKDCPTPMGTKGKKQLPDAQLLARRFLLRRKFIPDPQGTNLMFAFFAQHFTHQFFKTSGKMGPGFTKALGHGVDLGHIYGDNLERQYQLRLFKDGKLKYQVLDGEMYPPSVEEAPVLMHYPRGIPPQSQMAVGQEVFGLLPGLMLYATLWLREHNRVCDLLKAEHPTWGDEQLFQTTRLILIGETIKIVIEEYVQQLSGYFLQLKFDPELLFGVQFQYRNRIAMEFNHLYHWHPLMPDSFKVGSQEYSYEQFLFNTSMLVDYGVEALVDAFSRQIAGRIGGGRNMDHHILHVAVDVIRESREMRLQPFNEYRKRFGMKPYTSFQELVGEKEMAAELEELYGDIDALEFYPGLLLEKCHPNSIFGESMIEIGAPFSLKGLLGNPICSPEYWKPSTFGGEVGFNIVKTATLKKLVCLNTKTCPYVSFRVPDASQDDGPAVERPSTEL

[20] = molecular target: T5, Prostaglandin G/H synthase 1; format: functional; remark: listed apart in the source
Note: assay procedure not described here.

Sequence of Acetylcholinesterase (P22303 whole entry): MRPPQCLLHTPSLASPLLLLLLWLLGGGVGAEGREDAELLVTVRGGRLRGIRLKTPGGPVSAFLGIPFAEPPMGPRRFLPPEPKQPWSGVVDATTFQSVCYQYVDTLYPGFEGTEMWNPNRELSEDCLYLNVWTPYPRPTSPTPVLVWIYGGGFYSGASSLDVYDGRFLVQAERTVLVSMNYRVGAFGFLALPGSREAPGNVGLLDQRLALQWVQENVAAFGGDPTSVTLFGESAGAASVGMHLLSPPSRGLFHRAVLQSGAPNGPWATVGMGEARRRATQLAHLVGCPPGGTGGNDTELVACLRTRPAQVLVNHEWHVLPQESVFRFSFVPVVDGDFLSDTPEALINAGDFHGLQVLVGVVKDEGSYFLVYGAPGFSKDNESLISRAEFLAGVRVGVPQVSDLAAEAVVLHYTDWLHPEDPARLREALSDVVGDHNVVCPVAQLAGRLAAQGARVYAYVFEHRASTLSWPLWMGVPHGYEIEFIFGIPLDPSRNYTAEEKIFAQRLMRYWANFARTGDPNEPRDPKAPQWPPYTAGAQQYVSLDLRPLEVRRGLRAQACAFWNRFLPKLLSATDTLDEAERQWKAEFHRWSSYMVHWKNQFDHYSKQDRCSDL

Compound	AC50 [1] [µM]	AC50 [2] [µM]	AC50 [3] [µM]	AC50 [4] [µM]	AC50 [5] [µM]	AC50 [6] [µM]	AC50 [7] [µM]	AC50 [8] [µM]	AC50 [9] [µM]	AC50 [10] [µM]	AC50 [11] [µM]	AC50 [12] [µM]	AC50 [13] [µM]	AC50 [14] [µM]	AC50 [15] [µM]	AC50 [16] [µM]	AC50 [17] [µM]	AC50 [18] [µM]	AC50 [19] [µM]	AC50 [20] [µM]
CC1=C(/C=C/C(C)=C\C=C\C(C)=C\C(=O)O)C(C)(C)CCC1 [ALITRETINOIN]	> 30	> 30	> 30	> 30	> 30	> 30	> 30	> 30	> 30	> 30	> 30	> 30	> 30	> 30	> 30	> 30	> 30	> 30	–	–
N=C(N)NC(=O)c1nc(Cl)c(N)nc1N [AMILORIDE]	> 30	–	> 30	> 30	> 30	> 30	> 30	> 30	> 30	> 30	–	> 30	> 30	> 30	> 30	> 30	> 30	> 30	> 30	> 30
O=NN(CCCl)C(=O)NCCCl [CARMUSTINE]	> 30	–	> 30	> 30	> 30	> 30	> 30	–	> 30	> 30	–	> 30	–	–	> 30	> 30	–	–	–	–
COc1cccc2c1C(=O)c1c(O)c3c(c(O)c1C2=O)C[C@@](O)(C(=O)CO)C[C@@H]3O[C@H]1C[C@H](N)[C@H](O)[C@H](C)O1 [DOXORUBICIN]	> 30	> 30	> 30	> 30	> 30	> 30	> 30	> 30	> 30	> 30	–	> 30	> 30	> 30	> 30	> 30	24.7	> 3	> 30	15.5
COc1cccc2c1C(=O)c1c(O)c3c(c(O)c1C2=O)C[C@@](O)(C(=O)CO)C[C@@H]3O[C@H]1C[C@H](N)[C@@H](O)[C@H](C)O1 [EPIRUBICIN]	17	> 30	8.86	> 1	> 30	> 30	> 30	> 30	> 30	> 30	–	> 30	> 30	19.3	> 30	> 30	8.17	> 30	> 30	2.44
CC(C)N1CCN(c2ccc(OCC3COC(Cn4cncn4)(c4ccc(Cl)cc4Cl)O3)cc2)CC1 (stereo not given) [TERCONAZOLE]	16.5	> 30	> 30	16	2	25.2	7.12	> 30	0.096	> 30	> 30	> 30	> 30	> 30	> 30	7.14	20	–	> 30	> 30
CC(CN(C)C)CN1c2ccccc2CCc2ccccc21 (stereo not given) [TRIMIPRAMINE]	> 30	> 30	–	–	1.27	–	0.0178	> 30	> 30	> 30	> 30	5.7	> 30	> 30	18.5	10.9	9.64	–	> 30	> 30
